{
  "source": "patent US11622951B2",
  "about": "“Alpha-aminoadipate for treatment of vision loss and restoring sight” (The Schepens Eye Research Institute, Inc., priority 2013, dated 2023)",
  "key": {"retinal neurons": {"tested_on": "retinal neurons", "assay": "Retinal neuron morphology and lamina structure after injection (electron microscopy, Nissl, recoverin, syntaxin)", "type": "in vivo, mouse", "procedure": "Mice were anesthetized by intraperitoneal injection of ketamine (62.5 mg/kg) and xylazine (12.5 mg/kg) and transcardially perfused with phosphate buffered saline (PBS) followed by 4% paraformaldehyde in PBS. Retinal flat-mounts or transverse retinal sections (14 μm) were preblocked with PBS containing 3% bovine serum albumin (Sigma-Aldrich, St. Louis, Mo.) and 0.3% Triton X (Sigma-Aldrich) and incubated, first, with primary antibody overnight, and then with secondary antibody for 1 hour at room temperature. The following antibodies were used: Cy3-conjugated monoclonal antibody against GFAP (1:1000; Sigma), Brn-3b (1:200; Santa Cruz Biotechnology; Santa Cruz, Calif.), mouse anti-rhodopsin (1:4000; Rho1D4), chick anti-cone-opsin (1:300), and Cy-2, Cy-3 or Cy-5-conjugated secondary antibody (Jackson ImmunoResearch; West Grove, Pa.). Assessment of morphological integration were quantified by counting EGFP+ cells located outside of transplanted cell clusters in retinal whole-mounts. Statistical significance was determined by either the two tailed student t test or ANOVA.\nMice were sacrificed 3 days after receiving the injection of α-AA (1 μg/μl) or saline as controls by injection of overdose of ketamine/xylazine followed by cervical dislocation, and the eyeballs were dissected, fixed with Karnovsky's fixative (pH 7.4) for 24 h. The quadrants of the eyes that received subretinal injection were dissected and embedded in Epon-Araldite. Semi-thin sections (1-2 μm) were stained with phenylenediamine phase staining. The sections were examined and photographed with a transmission electron microscope (EM410; Philips; Eindhoven, The Netherlands). Ten randomly selected retinal sections of each eye were photographed at 1900× magnification, and all Müller glial nuclei in the photomicrograph were counted.\nRetinal sections were examined under electron microscopy, in which Müller glia were identified by their characteristic angular nuclei, dense chromatin and dark perinuclear cytoplasm (FIG. 1e-h). […]"}, "retinal ganglion cells": {"tested_on": "retinal ganglion cells", "assay": "Cell-attached patch clamp of retinal ganglion cells from Rho-/- mice", "set-up": "species or system mouse", "settings": "retinas extracted from treated eyes of Rho-/- mice, cells responding/recorded", "procedure": "Mice carrying rhodopsin deficiency (Rho^−/−) were used to determine if injection of alpha-aminoadipate (αAA) is sufficient to induce neuroregeneration from endogenous retinal progenitors, e.g., Muller cells, leading to preservation and restoration of photoreceptor cell function. Light-evoked photoreceptor responses and retinal functions in Rho^−/− mice that received αAA or saline injection were assessed using ERGS and whole cell-attached patch clamp. […] Consistent with the presence of ERG b-waves in αAA-treated eye, light-elicited spiking responses in some of the ganglion cells were observed (n=4/9) (FIG. 15 A, B). Similar to findings from other types of retinal degenerative mice, an elevated level of background firing in these cells, likely due to the changes in the excitability of the presynaptic network formed by bipolar cells and amacrine cells, were also observed. In contrast, no light-elicited responses in ganglion cells were recorded from the saline-injected eyes (n=4/4, FIG. 14C). […] Additional vision and optomotor tests known in the art are conducted to assess vision restoration, such as the water maze test. Thus, a single intraocular injection of αAA may be sufficient to improve vision, in part by increasing the number of cones."}},
  "note": "Entries after “also recorded” stand apart in the source; their conditions may differ.",
  "data": [
    {"smiles": "NC(CCCC(=O)O)C(=O)O", "note": "(stereo not drawn) [α-AA, alpha-aminoadipate]", "values": [
      {"measurement": "retinal neuron morphology (electron microscopy)", "setting": "retinal neurons; 3 days after subretinal injection", "result": "No abnormality in retinal neuron morphology"},
      {"measurement": "morphology and lamina structure (recoverin, syntaxin immunolabeling)", "setting": "retinal neurons; day 3 after injection, vs saline-injected controls", "result": "No apparent changes; also recorded: No significant difference"},
      {"measurement": "neuronal toxicity", "setting": "retinal neurons; mouse, in vivo", "result": "No neuronal toxicity"},
      {"measurement": "ganglion cells with light-elicited spiking responses", "setting": "retinal ganglion cells", "result": "4/9"}
    ]}
  ]
}
